Patent US20240116926A1, “HETEROAROMATIC COMPOUNDS” (AstraZeneca AB, priority 2022, published 2024)
≈ marks a conversion by molar mass, not a printed value.

Legend:
TEAD4(217-434) = TEAD4(217-434) (Homo sapiens (Human), UniProt Q15561); assay: TEAD4 FRET; assay type: binding; details: depalmitoylated, biotinylated TEAD4(217-434), FAM labelled Probe A, 120 min at 25° C.
Description: Compounds were dosed with a final DMSO concentration of 1% (v/v). Compound IC50 values were assessed following a 10-point, half-log10 dilution schema starting at 100 μM compound concentration. Specifically, human TEAD protein from TEAD4(217-434) was cloned into an overexpression vector, expressed as an N-terminal HIS-TEV-Avi-tagged fusion protein in E coli, and subsequently purified, then protein was chemically depalmitoylated & biotinylated. The assay was performed in 384-well LV plates (384-well black, medium binding, PS, HIBASE, GREINER #784076) and run in the presence and absence of the compound of interest. Each well of 5 μL assay mixture contained 10 mM Tris-HCl (pH 7.5), 100 mM NaCl, 0.05 mM EDTA, 1 mM TECP, 1% DMSO, 0.03% Pluronic acid F127, 20 nM dePal Avi TEAD4 (217-434)-depalmitoylated & biotinylated protein, 0.8 nM Streptavidin Terbium cryptate (CisBio #610SATLB), 625 nM FAM labelled Probe A. Reactions were incubated at 25° C. for 120 min before reading on a PHERASTAR FSX Plate Reader (337 520 490 HTRF module required) (Supplier BMP).
The data file from the PHERAstar FSX contains both the acceptor (520 nm) and donor channels (490 nm) (“Channel A”=acceptor channel (520 nm), “Channel B”=donor channel (490 nm)). The ratio of the donor and acceptor (Channel A/Channel B) is calculated within Genedata Assay Analyzer.
Probe A is 3′,6′-dihydroxy-3-oxo-N-{8-[2-(5-{2-[4-(trifluoromethyl)anilino]phenyl}-2H-tetrazol-2-yl)acetamido]octyl}-3H-spiro[[2]benzofuran-1,9′-xanthene]-5-carboxamide;

MCF7-Tead cell line = assay: TEAD reporter assay; assay type: cell-based; details: MCF7-Tead cells, luciferase activity after 24 hours
Description: (§1) MCF7-Tead cell line was obtained from BPS BIOSCIENCE (catalog number 60618) and was maintained in DMEM containing 10% fetal calf serum, 2 mM glutamine, and 400 μg/ml G418. Cells were grown in a humidified incubator at 37° C. with 5% CO2. Cells were distributed to flat bottom white polystyrene TC treated 384 well plates at a density of 3,500 cells/well in 30 uL. Cells were incubated for 24 hours at 37° C. with 5% CO2. Cells were acoustically dosed using an Echo 555, with compounds serially diluted in 100% DMSO. Plates were incubated for an additional 24 hours. Cells were examined for luciferase activity through the addition of 30 μL Bright-Glo luciferase (Promega catalog number E2620). Plates were incubated for 10 minutes at room temperature and luminescence was read using Tecan plate reader. The data obtained with each compound was exported to […] software to perform curve fitting analysis.

[1] = system: MCF7-Luciferase cell line; assay: Control reporter (MCF7-Luciferase); assay type: cell-based; details: MCF7-Luciferase cells, luciferase activity after 24 hours
Description: (iii) Control Reporter (MCF7-Luciferase)
as §1, with “MCF7-Luciferase” for “MCF7-Tead”, “BPS BIOSCIENCE” left out, “SC050-L)” for “60618)”, “glutamine.” for “glutamine, and 400 μg/ml G418.”, “μL.” for “uL.”

[2] = Solubility (thermodynamic, shake-flask); assay type: physicochemical; details: thermodynamic from solid; aqueous phosphate buffer (pH 7.4), 24 hours at 25° C.
Description: The thermodynamic solubility of a research compound is measured under standard conditions. It is a shake-flask approach that uses 10 mM DMSO solutions which are supplied from the Compound Managements liquid store and is a high throughput method. The dried compounds are equilibrated in an aqueous phosphate buffer (pH 7.4) for 24 hours at 25° C., the portion with the dissolved compound is then separated from the remains. The solutions are analyzed and quantified using UPLC/MS/MS, QC-samples are incorporated in each assay-run to ensure the quality of the assay.

[3] = Protein binding measurements in human plasma (Hu PPB); assay type: in vitro ADME; details: equilibrium dialysis for 18 hours, fraction unbound
Description: The automated equilibrium dialysis assay in human plasma uses the RED (Rapid Equilibrium Dialysis) Device and sample handling. The assay generally runs over two to three days including delivery of results. After dialysis for 18 hours, plasma and buffer samples are prepared for analysis by liquid chromatography and mass spectrometry. Samples are generally tested in singlicates and quantified by LC/MSMS by using a 7-point calibration curve in plasma. The compounds are pooled together in plasma pools up to 10 compounds. Three reference compounds are used in each run, Propranolol, Metoprolol and Warfarin. Warfarin is used as a control in each pool and Propranolol and Metoprolol are placed randomly in each run. An in-house Excel macro is used for preparation of files for the robot and the mass spectrometer and is also used for the calculations of fraction unbound (fu %) in plasma.

Sequence of TEAD4(217-434) (Q15561 217-434): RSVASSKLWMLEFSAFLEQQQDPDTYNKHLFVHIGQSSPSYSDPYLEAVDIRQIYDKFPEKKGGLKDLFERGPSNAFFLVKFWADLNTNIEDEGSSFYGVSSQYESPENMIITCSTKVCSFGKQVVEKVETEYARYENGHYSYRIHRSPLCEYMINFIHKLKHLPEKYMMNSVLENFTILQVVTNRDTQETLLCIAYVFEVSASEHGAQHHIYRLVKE

IC50 (TEAD4(217-434)) [nM]	IC50 (MCF7-Tead cell line) [nM]	IC50 [1] [nM]	solubility at 24 h [2] [µM]	Hu PPB (% free) [3] [% free]	SMILES
41	30	> 31700	40 (≈ 17.2 µg/mL)	6.1	C=CC(=O)N1CC[C@H](Nc2nnc(-c3ccc(C(F)(F)F)cc3)c3cccc(F)c23)C1 [Example 13, (S)-1-(3-((8-fluoro-4-(4-(trifluoromethyl)phenyl)phthalazin-1-yl)amino)pyrrolidin-1-yl)prop-2-en-1-one]
2900	1780	> 31700	0.6 (≈ 0.247 µg/mL)	0.2	C=CC(=O)N[C@H]1CCN(c2nc(-c3ccc(C(F)(F)F)cc3)nc3ccccc23)C1 (racemic) [Comparative Example D, N-(1-{2-[4-(trifluoromethyl)phenyl]-4-quinazolinyl}-3-pyrrolidinyl)acrylamide, reference compound]
68	107	> 31700	365 (≈ 157 µg/mL)	17.0	C=CC(=O)N1C[C@H](O)[C@H](Nc2nnc(-c3ccc(C(F)(F)F)cc3)c3cccnc23)C1 [Example 33, 1-((3S,4R)-3-hydroxy-4-((5-(4-(trifluoromethyl)phenyl)pyrido[2,3-d]pyridazin-8-yl)amino)pyrrolidin-1-yl)prop-2-en-1-one]
950	957	> 31700	65 (≈ 28.8 µg/mL)	5.4	C=CC(=O)N1C[C@H](CO)[C@@H](Nc2nnc(-c3ccc(C(F)(F)F)cc3)c3ccccc23)C1 [Example 22, 1-((3S,4R)-3-(hydroxymethyl)-4-((4-(4-(trifluoromethyl)phenyl)phthalazin-1-yl)amino)pyrrolidin-1-yl)prop-2-en-1-one]
42	14	> 31700	48 (≈ 21.2 µg/mL)	4.7	C=CC(=O)N1C[C@@H](CO)[C@H](Nc2nnc(-c3ccc(C(F)(F)F)cc3)c3ccccc23)C1 [Example 23, 1-((3R,4S)-3-(hydroxymethyl)-4-((4-(4-(trifluoromethyl)phenyl)phthalazin-1-yl)amino)pyrrolidin-1-yl)prop-2-en-1-one]
29	23	> 31700	63 (≈ 27.9 µg/mL)	6.0	C=CC(=O)N1C[C@@H](CO)[C@H](Nc2ncc(-c3ccc(C(F)(F)F)cc3)c3nccnc23)C1 [Example 27, 1-((3R,4S)-3-(hydroxymethyl)-4-((8-(4-(trifluoromethyl)phenyl)pyrido[3,4-b]pyrazin-5-yl)amino)pyrrolidin-1-yl)prop-2-en-1-one]
72	152	21500	72 (≈ 30.7 µg/mL)	0.9	C=CC(=O)NC1(CNc2nnc(-c3ccc(C(F)(F)F)cc3)c3ccccc23)CCC1 [Example 41, N-(1-(((4-(4-(trifluoromethyl)phenyl)phthalazin-1-yl)amino)methyl)cyclobutyl)acrylamide]
200	255	> 31700	47 (≈ 19.4 µg/mL)	10.0	C=CC(=O)N1CC[C@H](Nc2nnc(-c3ccc(C(F)(F)F)cn3)c3ccccc23)C1 [Example 18, (S)-1-(3-((4-(5-(trifluoromethyl)pyridin-2-yl)phthalazin-1-yl)amino)pyrrolidin-1-yl)prop-2-en-1-one]
42	65	> 31700	52 (≈ 22.3 µg/mL)	16.0	C=CC(=O)N1C[C@H](O)[C@H](Nc2nnc(-c3ccc(C(F)(F)F)cc3)c3ncccc23)C1 [Example 32, 1-((3S,4R)-3-hydroxy-4-((8-(4-(trifluoromethyl)phenyl)pyrido[2,3-d]pyridazin-5-yl)amino)pyrrolidin-1-yl)prop-2-en-1-one]
61	71	> 31700	168 (≈ 76.7 µg/mL)	3.9	C=CC(=O)N1C[C@@H](COC)[C@H](Nc2nnc(-c3ccc(C(F)(F)F)cc3)c3ccccc23)C1 [Example 28, 1-((3R,4S)-3-(methoxymethyl)-4-((4-(4-(trifluoromethyl)phenyl)phthalazin-1-yl)amino)pyrrolidin-1-yl)prop-2-en-1-one]
55	260	22700	66 (≈ 26.2 µg/mL)	1.1	C=CC(=O)N1CC[C@@H](c2nc(-c3ccc(C(F)(F)F)cc3)c3ccccc3n2)C1 (racemic) [Comparative Example C, 1-(3-{4-[4-(trifluoromethyl)phenyl]-2-quinazolinyl}-1-pyrrolidinyl)-2-propen-1-one, reference compound]
76	42	> 31700	175 (≈ 77.6 µg/mL)	26.0	C=CC(=O)N1C[C@@H](CO)[C@H](Nc2nnc(-c3ccc(C(F)(F)F)cc3)c3cccnc23)C1 [Example 26, 1-((3R,4S)-3-(hydroxymethyl)-4-((5-(4-(trifluoromethyl)phenyl)pyrido[2,3-d]pyridazin-8-yl)amino)pyrrolidin-1-yl)prop-2-en-1-one]
23	16	> 31700	32 (≈ 14.2 µg/mL)	1.9	C=CC(=O)N1C[C@@H](CO)[C@H](Nc2ncc(-c3ccc(C(F)(F)F)cc3)c3ncccc23)C1 [Example 24, 1-((3R,4S)-3-(hydroxymethyl)-4-((8-(4-(trifluoromethyl)phenyl)-1,6-naphthyridin-5-yl)amino)pyrrolidin-1-yl)prop-2-en-1-one]
42	17	20700	13 (≈ 5.75 µg/mL)	8.3	C=CC(=O)N1C[C@@H](Nc2nnc(-c3ccc(C(F)(F)F)cc3)c3ccccc23)C[C@@H]1CO [Example 47, 1-((2R,4S)-2-(hydroxymethyl)-4-((4-(4-(trifluoromethyl)phenyl)phthalazin-1-yl)amino)pyrrolidin-1-yl)prop-2-en-1-one]
78	297	29900	158 (≈ 71 µg/mL)	6.2	C=C(F)C(=O)N1C[C@H](F)[C@H](Nc2nnc(-c3ccc(C(F)(F)F)cc3)c3cccnc23)C1 [Example 6, 2-fluoro-1-((3S,4R)-3-fluoro-4-((5-(4-(trifluoromethyl)phenyl)pyrido[2,3-d]pyridazin-8-yl)amino)pyrrolidin-1-yl)prop-2-en-1-one]
